ChEMBL document CHEMBL1857833, “Screening and optimization of specific chemical series against human African Trypanosomiasis (HAT)”
≈ marks a conversion by molar mass, not a printed value. Where “and” joins values, the source holds several entries; their conditions need not be identical. Equal values may be shown once.

Legend:
[1] = DNDI: Cytotoxicity against L929 mouse fibroblasts, CYTO-SP, 24 hour; assay type: toxicity, cell-based; details: mouse, L929 mouse fibroblasts
[2] = DNDI: Cytotoxicity against L929 mouse fibroblasts, 72 hour.; assay type: toxicity, cell-based; details: mouse, L929 mouse fibroblasts
[3] = tested on: Trypanosoma brucei; experiment: DNDI: Inhibition of Human African Trypanosomiasis, SBRI 427, in vitro; assay type: functional, organism-based
[4] = Trypanosoma brucei, SBRI 427, read-out: IC50

SMILES | IC50 [3, 4] [µg/mL] | IC50 [3] | IC50 at 24 h [1] [µg/mL] | IC50 at 72 h [2] [µg/mL]
CCCCC[C@@H](C)NCc1coc(-c2ccc(Cl)cc2)n1 | 0.92 (≈ 3 µM) |  | > 50 | 3.18 (≈ 10.4 µM)
CCCCCC(C)NCc1coc(-c2ccccc2F)n1 (configuration not stated) | 1.82 (≈ 6.27 µM) |  | 13 (≈ 44.8 µM) | 3.59 (≈ 12.4 µM)
CCCCCC(C)NCc1coc(-c2ccc(OC(F)(F)F)cc2)n1 (configuration not stated) | 1.11 (≈ 3.11 µM) |  | > 50 | 3.56 (≈ 9.99 µM)
CCCOc1ccc(-c2nc(CNC3CCCCCC3)co2)cc1 | 1.25 (≈ 3.81 µM) |  | 15.8 (≈ 48.1 µM) | < 3.13
CCCCCC(C)NCc1coc(-c2cc(F)ccc2F)n1 (configuration not stated) | 2.69 (≈ 8.72 µM) |  | 36 (≈ 117 µM) | 13.2 (≈ 42.7 µM)
CCCCCC(C)NCc1coc(-c2ccccc2C)n1 (configuration not stated) | 4.1 (≈ 14.3 µM) |  | 16 (≈ 55.9 µM) | 3.6 (≈ 12.6 µM)
Clc1ccc(-c2nc(CN3CCCCC3)co2)cc1 | > 5 |  | > 50 | 34.4 (≈ 124 µM)
CCCCCC(C)NCc1coc(-c2ccc(C(F)(F)F)cc2)n1 (configuration not stated) | 1.63 (≈ 4.79 µM) |  | > 50 | 3.55 (≈ 10.4 µM)
CCN(CC)Cc1coc(-c2ccc(Cl)cc2)n1 | > 5 |  | > 50 | 39.5 (≈ 149 µM)
CCCCc1ccc(-c2nc(C(C)(C)C)co2)cc1 | > 5 |  | > 50 | 28.7 (≈ 112 µM)
CCCCCC(C)NCc1nc(-c2ccccc2)no1 (configuration not stated) | > 5 |  | 50 (≈ 183 µM) | 30.8 (≈ 113 µM)
CCCCCC(C)OCc1coc(-c2ccccc2)n1 (configuration not stated) | > 5 |  | > 50 | 27.7 (≈ 101 µM)
Clc1ccc(-c2nc(CNC3CCCCC3)co2)cc1 | 1.86 (≈ 6.4 µM) |  | > 50 | 6.85 (≈ 23.6 µM)
CCCCCC(C)NCc1coc(-c2ccc(SC(F)(F)F)cc2)n1 (configuration not stated) | 1.12 (≈ 3.01 µM) |  | > 50 | 3.64 (≈ 9.77 µM)
C[C@H](NCc1coc(-c2ccc(Cl)cc2)n1)C1CCCCC1 | 2.29 (≈ 7.18 µM) |  | > 50 | < 3.13
CCCC(CCC)NCc1coc(-c2ccc(OCC)cc2)n1 |  |  | > 50 | 6.37 (≈ 20.1 µM)
COc1ccc(C(=N)NO)cc1 | > 5 |  | > 50 | 
CN1CCCC1CCNCc1coc(-c2ccc(Br)cc2)n1 (configuration not stated) |  | 1.22 µg/mL and 0.45 µg/mL | 25.1 (≈ 68.9 µM) | 
O/N=C(\NC1CCC1)c1cccnc1OCC1CCCCC1 | 0.64 (≈ 2.11 µM) |  | > 50 | 
Cc1cc(C)cc(Oc2ccc(/C(=N/O)NC3CCCC3)cn2)c1 | 0.59 (≈ 1.81 µM) |  | < 50 | 
O/N=C(\NC1CCCCC1)c1cccc(Br)c1 | 3.28 (≈ 11 µM) |  | 39 (≈ 131 µM) | 
Cc1cc(C)cc(Oc2ccc(/C(=N/O)NCC3CC3)cn2)c1 | 1.02 (≈ 3.28 µM) |  | > 50 | 
CC(C)(C)CN/C(=N\O)c1ccc(Oc2cc(Cl)ccc2Cl)nc1 | 0.9 (≈ 2.44 µM) |  | > 50 | 
CCC(CC)N/C(=N\O)c1cccnc1OCC1CCCCC1 | 0.44 (≈ 1.38 µM) |  | 33.5 (≈ 105 µM) | 
N#Cc1cccnc1Oc1ccc2ccccc2c1 | > 5 |  | > 50 | 
O/N=C(\NC1CCCCC1)c1ccnc(Oc2cccc3c2CCCC3)c1 | 0.83 (≈ 2.27 µM) |  | 48.4 (≈ 132 µM) | 
CC(C)N1CCN(/C(=N\O)c2cccnc2Oc2cccc(C(F)(F)F)c2)CC1 | 0.73 (≈ 1.79 µM) |  | > 50 | 
COc1ccccc1-c1noc(C(C)C)n1 | > 5 |  | > 50 | 
CC1CCCCN1CCCNCc1coc(-c2ccc(Cl)cc2Cl)n1 (configuration not stated) |  | 2.68 µg/mL and 1.13 µg/mL | 42.2 (≈ 110 µM) | 
COc1cc(C)ccc1Oc1nc(C)ccc1/C(=N/O)NCc1cc(C)cc(C)c1 | 1.1 (≈ 2.71 µM) |  | > 50 | 

More lines, main results first:

IC50 [3, 4] [µg/mL] | IC50 [3] | SMILES | IC50 at 24 h [1] [µg/mL] | IC50 at 72 h [2] [µg/mL]
1.8 (≈ 6.26 µM) |  | CCCCCC(C)NCc1ccc(-c2ccccc2)s1 (configuration not stated) | 23 (≈ 80 µM) | 7.16 (≈ 24.9 µM)
1.09 (≈ 3.1 µM) |  | CN(/C(=N\O)c1cccnc1OCc1cccc(F)c1)c1ccccc1 | > 50 | 
> 5 |  | COc1ccc(/C(Cc2ccccc2)=N/O)cc1 | > 50 | 
> 5 |  | O/N=C(/c1ccccc1-c1ccccc1)N1CCCCCCC1 | > 50 | 
> 5 |  | COc1ccccc1/C(N)=N/O | > 50 | 
0.92 (≈ 2.68 µM) |  | COCC(C)N/C(=N\O)c1cccnc1Oc1ccc(C(C)C)cc1 (configuration not stated) | > 50 | 
> 5 |  | COc1ccc(/C=N/OCc2ccccc2)cc1 | > 50 | 
0.96 (≈ 2.73 µM) |  | CC(C)c1ccc(Oc2ncccc2/C(=N/O)NCc2ccco2)cc1 | > 50 | 
2.6 (≈ 8.83 µM) |  | O/N=C(\NC1CCCCC1)c1cccc(-c2ccccc2)c1 | 35 (≈ 119 µM) | 
0.39 (≈ 1.16 µM) |  | CC(C)(C)CN/C(=N\O)c1cccnc1Oc1c(F)cccc1F | 45.4 (≈ 135 µM) | 
> 5 |  | COc1ccccc1Oc1ncccc1C(=N)N | > 50 | 
 | 0.53 µg/mL and < 0.19 µg/mL | CSc1ccccc1Oc1ncccc1/C(=N/O)NCC1CC1 | > 50 | 
0.23 (≈ 0.69 µM) |  | O/N=C(\NC1CCCC1)c1cccnc1Oc1c(F)cccc1F | > 50 | 
0.78 (≈ 2.37 µM) |  | CCC(CC)N/C(=N\O)c1cccnc1Oc1ccc(OC)cc1 | > 50 | 
0.55 (≈ 1.62 µM) |  | Cc1ccc(Oc2ncccc2/C(=N/O)NCC(C)C)c2c1CCC2 | > 50 | 
> 5 |  | N/C(=N/O)c1cccnc1Oc1ccccc1 | > 50 | 

IC50 [3, 4] [µg/mL] | IC50 [3] | SMILES | IC50 at 24 h [1] [µg/mL] | IC50 at 72 h [2] [µg/mL]
0.89 (≈ 2.42 µM) |  | CC(C)c1ccc(Oc2ncccc2/C(=N/O)NCc2cccs2)cc1 | > 50 | 
1.07 (≈ 2.92 µM) | 0.54 µg/mL (≈ 1.47 µM) | CC1CC(NCc2coc(-c3ccc(C(F)(F)F)cc3)n2)CC(C)(C)C1 (configuration not stated) | > 50 | 
0.03 (≈ 0.071 µM) |  | CC1CC(N/C(=N\O)c2cccnc2Oc2cc(Cl)ccc2Cl)CC(C)(C)C1 (configuration not stated) | 30.9 (≈ 73.2 µM) | 
> 5 |  | COc1ccccc1Oc1ncccc1C(=O)NC1CCCCC1 | > 50 | 
0.98 (≈ 2.53 µM) |  | CC(C)c1ccc(Oc2ncccc2/C(=N/O)NC2CCc3ccccc32)cc1 (configuration not stated) | 45.1 (≈ 116 µM) | 
0.07 (≈ 0.172 µM) |  | CC1CC(N/C(=N\O)c2cccnc2Oc2ccc(F)c(Cl)c2)CC(C)(C)C1 (configuration not stated) | 28.2 (≈ 69.4 µM) | 
> 5 |  | C[C@@H]1[C@@H](N/C(=N\O)c2ccccc2-c2ccccc2)C[C@H]2C[C@@H]1C2(C)C | 17 (≈ 48.8 µM) | 
0.54 (≈ 1.37 µM) |  | CC1CC(N/C(=N\O)c2cccnc2Oc2ccc(C(C)C)cc2)CC(C)(C)C1 (configuration not stated) | 21.9 (≈ 55.4 µM) | 
> 5 |  | N/C(=N/O)c1cccnc1Oc1ccccc1Br | > 50 | 
> 5 |  | COc1ccccc1Oc1ncccc1C(=N)NC1CCCCC1 | > 50 | 
5 (≈ 14.3 µM) |  | C[C@@H]1[C@H]2C[C@@H](C[C@H]1N/C(=N\O)c1ccccc1-c1ccccc1)C2(C)C | 17 (≈ 48.8 µM) | 
1.05 (≈ 2.96 µM) | 2.05 µg/mL (≈ 5.78 µM) | CCOc1ccccc1-c1nc(CNC2C[C@@H]3C[C@H]([C@H]2C)C3(C)C)co1 (some centres not stated) | 27.8 (≈ 78.4 µM) | 
> 5 |  | CCO/N=C/c1ccccc1-c1ccccc1 | > 50 | 
0.81 (≈ 2.13 µM) |  | Cc1ccc(Oc2ncccc2/C(=N/O)NC2CCC(C)CC2)c2c1CCC2 (configuration not stated) | 32.5 (≈ 85.5 µM) | 
0.73 (≈ 1.75 µM) |  | CCOc1ccccc1CN/C(=N\O)c1cccnc1Oc1ccc(C)c2c1CCC2 | > 50 | 
> 5 |  | N#Cc1cccnc1Oc1ccccc1 | > 50 | 
